These results are taken from PubChem BioAssay AID330 (DTP/NCI, 2004).

In the assay the test system is P388 leukemia ip, CD2F1 mice, survival T/C. Put plainly: NCI In Vivo Anticancer Drug Screen. Data for tumor model P388 Leukemia (intraperitoneal) in CD2F1 (CDF1) mice. The note with it: endpoint: median survival time, higher = longer survival. The procedure, abridged:
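Mice carrying the transplanted tumor received test compound or vehicle. Survival was recorded in each group, and the value is the treated-group measurement divided by that of the vehicle-treated control group.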

The mark [1] stands for this setting: dose: 50.0 mg/kg/injection, schedule: Q01DX005 (ip), vehicle: Klucel (hydroxypropylcellulose) (HPC).
Setting [2] is: dose: 100.0 mg/kg/injection, schedule: Q01DX005 (ip), vehicle: Klucel (hydroxypropylcellulose) (HPC).
[3] abbreviates: dose: 200.0 mg/kg/injection, schedule: Q01DX005 (ip), vehicle: Klucel (hydroxypropylcellulose) (HPC).
Setting [4] is: dose: 12.5 mg/kg/injection, schedule: Q04DX003 (ip), vehicle: saline.
Where [5] appears, read: dose: 25.0 mg/kg/injection, schedule: Q04DX003 (ip), vehicle: saline.
Where [6] appears, read: dose: 12.5 mg/kg/injection, schedule: Q01DX009 (ip), vehicle: saline with Tween-80.
Where [7] appears, read: dose: 25.0 mg/kg/injection, schedule: Q01DX009 (ip), vehicle: saline with Tween-80.
Where [8] appears, read: dose: 50.0 mg/kg/injection, schedule: Q01DX009 (ip), vehicle: saline with Tween-80.
Where [9] appears, read: dose: 100.0 mg/kg/injection, schedule: Q01DX009 (ip), vehicle: saline with Tween-80.
The mark [10] stands for this setting: dose: 60.0 mg/kg/injection, schedule: Q01DX005 (ip), vehicle: saline with Tween-80.
[11] abbreviates: dose: 120.0 mg/kg/injection, schedule: Q01DX005 (ip), vehicle: saline with Tween-80.

“And” between values parts separate entries of the source, which are not always exact repeats. Equal entries are not always repeated. Toxic doses and inconclusive results are not listed. Square brackets hold non-standard residues; d marks the D form. Peptide text beside a SMILES is read from it. * marks the point of attachment. Cbz = O=C(OCc1ccccc1)*; Nva = CCC[CH](N)C(=O)O

With `Cc1cc(N/N=C/c2ccc(Br)cc2)c2cc3c(cc2n1)OCO3`, the T/C by setting is: under setting [1], 94 % of control; under setting [2], 96 % of control; under setting [3], 96 % of control.
For `CN(N=O)C(=O)NCC1OC(n2cnc3c(=O)[nH]cnc32)C(O)C1O` (stereo not given), the T/C is, setting by setting: (dose: 50.0 mg/kg/injection, schedule: Q01DX005 (ip), vehicle: saline) 100 % of control; (dose: 100.0 mg/kg/injection, schedule: Q01DX005 (ip), vehicle: saline) 105 % of control; (dose: 200.0 mg/kg/injection, schedule: Q01DX005 (ip), vehicle: saline) 121 % of control.
On to `CCN(CC)P(=O)(N1CC1)N1CC1`, for which the T/C is 169 % of control (dose: 6.25 mg/kg/injection, schedule: Q01DX009 (ip), vehicle: saline); 243 % of control (dose: 12.5 mg/kg/injection, schedule: Q01DX009 (ip), vehicle: saline); 175 % of control under setting [4]; 86 % of control (dose: 25.0 mg/kg/injection, schedule: Q01DX009 (ip), vehicle: saline); 245 % of control under setting [5].
`COc1cc2c(cc1OC)CN1CCCC1C2` (stereo not given): the T/C by setting is: (dose: 6.25 mg/kg/injection, schedule: Q01DX005 (ip), vehicle: saline with Tween-80) 97 % of control; (dose: 12.5 mg/kg/injection, schedule: Q01DX005 (ip), vehicle: saline with Tween-80) 108 % of control; (dose: 25.0 mg/kg/injection, schedule: Q01DX005 (ip), vehicle: saline with Tween-80) 101 % of control.
Turning to `COc1cc2c(cc1OC)C(=O)Nc1nc(N)nc(N)c1C2`, the T/C is, setting by setting: (dose: 100.0 mg/kg/injection, schedule: Q01DX001 (ip), vehicle: saline with Tween-80) 108 % of control; (dose: 200.0 mg/kg/injection, schedule: Q01DX001 (ip), vehicle: saline with Tween-80) 119 % of control.
`CC1COC(O)(C2OCOC(C3CC(=O)NC(=O)C3)C2O)C1C` (stereo not given): the T/C is 100 % of control (dose: 0.01 mg/kg/injection, schedule: Q01DX009 (ip), vehicle: distilled water + alcohol); 102 % of control (dose: 0.03 mg/kg/injection, schedule: Q01DX009 (ip), vehicle: distilled water + alcohol); 102 % of control (dose: 0.06 mg/kg/injection, schedule: Q01DX009 (ip), vehicle: distilled water + alcohol); 102 % of control (dose: 0.12 mg/kg/injection, schedule: Q01DX009 (ip), vehicle: distilled water + alcohol).
`NC(=O)CC1OC(=O)Cc2cc3c(c(O)c21)C(=O)c1c(O)cccc1C3=O` (stereo not given): the T/C was 109 % of control (dose: 0.75 mg/kg/injection, schedule: Q01DX009 (ip), vehicle: DMSO); 107 % of control (dose: 1.5 mg/kg/injection, schedule: Q01DX009 (ip), vehicle: DMSO); 107 % of control (dose: 3.0 mg/kg/injection, schedule: Q01DX009 (ip), vehicle: DMSO); 107 % of control (dose: 6.0 mg/kg/injection, schedule: Q01DX009 (ip), vehicle: DMSO).
On to `CCCC(=O)Nc1cc2c3c(c1)CCCN3CCC2`, for which the T/C runs as follows: under setting [6], 100 % of control; under setting [7], 95 % of control.
Take `Cc1cc(Cl)ccc1NC(=O)N1CCCCC1`: the T/C reads like this: (dose: 60.0 mg/kg/injection, schedule: Q01DX005 (ip), vehicle: Klucel (hydroxypropylcellulose) (HPC)) 96 % of control; (dose: 120.0 mg/kg/injection, schedule: Q01DX005 (ip), vehicle: Klucel (hydroxypropylcellulose) (HPC)) 96 % of control; (dose: 240.0 mg/kg/injection, schedule: Q01DX005 (ip), vehicle: Klucel (hydroxypropylcellulose) (HPC)) 93 % of control.
In the case of `CC1=N/C(=C\c2ccccc2O)C(=O)O1`, the T/C under setting [1] was 104 % of control, the T/C under setting [2] is 98 % of control and the T/C under setting [3] is 98 % of control.
In the case of `[Cl][Zr][Cl].[c-]1[c-][c-][c-](Cc2ccccc2)[c-]1.[c-]1[c-][c-][c-](Cc2ccccc2)[c-]1`, the T/C is, setting by setting: (dose: 3.12 mg/kg/injection, schedule: Q01DX009 (ip), vehicle: saline with Tween-80) 104 % of control; (dose: 6.25 mg/kg/injection, schedule: Q01DX009 (ip), vehicle: saline with Tween-80) 89 % of control; under setting [6], 86 % of control.
As for `CCN(CC)CCCN(c1ccccc1)C1Cc2ccccc2C1`, the T/C is 95 % of control (dose: 15.0 mg/kg/injection, schedule: Q01DX009 (ip), vehicle: saline); 87 % of control (dose: 30.0 mg/kg/injection, schedule: Q01DX009 (ip), vehicle: saline); 101 % of control (dose: 60.0 mg/kg/injection, schedule: Q01DX009 (ip), vehicle: saline).
In the case of `CCCC(NC(=O)OCc1ccccc1)C(=O)NC(Cc1ccc(O)cc1)C(N)=O` (stereo not given) (Cbz-[Nva]-Tyr-NH2; configuration not given here), the T/C was 92 % of control under setting [1], 100 % of control under setting [2] and 88 % of control under setting [3].
Consider `O=C(NCCNC(=O)c1cccnc1)c1cccnc1`, for which the T/C is 118 % of control (dose: 50.0 mg/kg/injection, schedule: Q01DX005 (ip), vehicle: saline with Tween-80); 108 % of control (dose: 100.0 mg/kg/injection, schedule: Q01DX005 (ip), vehicle: saline with Tween-80); 111 % of control (dose: 200.0 mg/kg/injection, schedule: Q01DX005 (ip), vehicle: saline with Tween-80).
`C[C@@H]1CC[C@@]2(OC1)O[C@H]1C[C@H]3[C@@H]4CC=C5C=CCC[C@]5(C)[C@H]4CC[C@]3(C)[C@H]1[C@@H]2C`: the T/C was 100 % of control (dose: 2.25 mg/kg/injection, schedule: Q01DX005 (ip), vehicle: Klucel (hydroxypropylcellulose) (HPC)); 100 % of control (dose: 4.5 mg/kg/injection, schedule: Q01DX005 (ip), vehicle: Klucel (hydroxypropylcellulose) (HPC)); 105 % of control (dose: 9.0 mg/kg/injection, schedule: Q01DX005 (ip), vehicle: Klucel (hydroxypropylcellulose) (HPC)); 100 % of control (dose: 18.0 mg/kg/injection, schedule: Q01DX005 (ip), vehicle: Klucel (hydroxypropylcellulose) (HPC)); 98 % of control (dose: 36.0 mg/kg/injection, schedule: Q01DX005 (ip), vehicle: Klucel (hydroxypropylcellulose) (HPC)).
`COc1cccc2c1C(=O)c1c(O)c3c(c(O)c1C2=O)CC(O)(C(C)NCCCO)CC3OC1CC(N)C(O)C(C)O1` (stereo not given): the T/C was 111 % of control (dose: 1.5 mg/kg/injection, schedule: Q01DX009 (ip), vehicle: water); 168 % of control and 172 % of control (dose: 24.0 mg/kg/injection, schedule: Q01DX009 (ip), vehicle: water); 173 % of control (dose: 48.0 mg/kg/injection, schedule: Q01DX009 (ip), vehicle: water).
In the case of `N/N=C1\C(Cl)=C(Cl)c2ccccc21`, the T/C is 90 % of control under setting [1], 93 % of control under setting [2] and 90 % of control under setting [3].
Consider `CCN(CC)CCC(O)(c1ccc2c(c1)OCO2)c1cc(OC)c(OC)c(OC)c1` (stereo not given), for which the T/C reads like this: under setting [1], 103 % of control and 93 % of control and 94 % of control; under setting [3], 101 % of control.
`CCCCC(SC(CC)(C(C)=O)c1ccccc1)C(N)=O` (stereo not given): the T/C runs as follows: under setting [8], 91 % of control; under setting [9], 90 % of control; (dose: 200.0 mg/kg/injection, schedule: Q01DX009 (ip), vehicle: saline with Tween-80) 88 % of control; (dose: 400.0 mg/kg/injection, schedule: Q01DX009 (ip), vehicle: saline with Tween-80) 90 % of control.
As for `COc1ccc(C2COc3c(ccc(O)c3O)C2)cc1OC` (stereo not given), the T/C by setting is: under setting [10], 94 % of control; under setting [11], 94 % of control; (dose: 240.0 mg/kg/injection, schedule: Q01DX005 (ip), vehicle: saline with Tween-80) 94 % of control.
For the molecule `O=C(Nc1ccc(C2=NCCN2)cc1)c1cc2ccc(C3=NCCN3)cc2o1`, the T/C reads like this: (dose: 100.0 mg/kg/injection, schedule: Q04DX003 (ip), vehicle: suspension in saline) 104 % of control; (dose: 200.0 mg/kg/injection, schedule: Q04DX003 (ip), vehicle: suspension in saline) 119 % of control.
`CCOC(=O)C(Br)CN1C(=O)c2ccccc2C1=O` (stereo not given): the T/C is, setting by setting: under setting [10], 97 % of control; under setting [11], 115 % of control.
Consider `C(=C\c1cc2ccc(C3=NCCN3)cc2[nH]1)/c1ccc(Oc2ccc(C3=NCCN3)cc2)cc1`, for which the T/C was 108 % of control (dose: 3.12 mg/kg/injection, schedule: Q04DX003 (ip), vehicle: saline); 103 % of control (dose: 6.25 mg/kg/injection, schedule: Q04DX003 (ip), vehicle: saline); 111 % of control under setting [4]; 120 % of control under setting [5].
In the case of `CCOc1ccc2nc(SCCl)sc2c1`, the T/C runs as follows: under setting [7], 101 % of control; under setting [8], 99 % of control; under setting [9], 91 % of control.
